Assay results published in patent US12391698B2, “Substituted piperidines and piperazines and methods for the treatment of CNS disorders” (SUVEN LIFE SCIENCES LIMITED, priority 2022, dated 2025).
Counter-ions that a name gives are not always drawn. Like-named read-outs stand apart in the source and are kept apart here.

Key:
Male Wistar rats [1] = assay: MK-801-induced amnesia in novel object recognition task (NORT); type: in vivo, rat; details: 0.3 mg/kg, p.o., MK-801 0.03 mg/kg, i.p.
Procedure: Male Wistar rats of 230-280 g body weight were used. Rats were weighed and randomized according to their body weights. On day 1, animals were habituated to the arenas for 45 min. On day 2, 30 min before the trial-1 animals were administered with vehicle (WFI) or test compound and 20 min before the trial-1 the animals were administered with MK-801 0.03 mg/kg, i.p. Trial-1 is familiarization task in the arena with two similar kind of silver color flasks of same dimensions for a period of 3 min. After an inter trial interval of 90 min animals were subjected to recognition task in the arena with one silver and one violet bottle for a period of 3 min. Time spent by the rats with either familiar or novel objects was noted and analyzed. MK-801-induced amnesia in novel object recognition task models cognitive deficits associated with schizophrenia.

Male Swiss albino mice = assay: Forced swim test; type: in vivo, mouse; details: 10 mg/kg, p.o., 30 min after treatment
Procedure: Male Swiss albino mice having weight range of 30-40 g were used. Mice were dosed with vehicle or test compound. Thirty min after treatment, animals were individually placed inside the plexiglass cylinder (40 cm height×17 cm width) for 6 min. The depth of water (24±1° C.) was maintained at 18 cm. The immobility of the mice during the last 4 min were recorded in the 6 min trial. Forced swim test assesses antidepressant like effects of test compounds.

[2] = target: T1, recombinant human D2S receptor (Homo sapiens, UniProt P14416); assay: Determination of Kb at D2S receptor, pCRE-Luc reporter gene assay in CHO cells; type: cell-based; details: for agonist activity at human recombinant D2S receptor / antagonistic activity at human recombinant D2S receptor: pCRE-Luc reporter gene assay; for Kb: with 0.3 μM Dopamine and 1 μM forskolin, luciferase readout
T1 construct: expressed in transfected cells
T1 sequence (P14416 1-414 isoform P14416-2): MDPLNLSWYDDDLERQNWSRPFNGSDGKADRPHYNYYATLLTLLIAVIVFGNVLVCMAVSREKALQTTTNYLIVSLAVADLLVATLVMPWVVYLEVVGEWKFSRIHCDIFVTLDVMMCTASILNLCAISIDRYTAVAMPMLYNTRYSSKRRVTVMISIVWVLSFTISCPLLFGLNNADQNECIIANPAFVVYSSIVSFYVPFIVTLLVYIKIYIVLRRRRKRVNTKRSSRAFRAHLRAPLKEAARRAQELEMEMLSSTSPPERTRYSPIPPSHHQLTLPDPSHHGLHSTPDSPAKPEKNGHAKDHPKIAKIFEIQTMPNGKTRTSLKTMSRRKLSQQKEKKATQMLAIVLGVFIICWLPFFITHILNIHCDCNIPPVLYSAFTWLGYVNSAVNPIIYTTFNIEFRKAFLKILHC
Procedure: A stable CHO cell line expressing recombinant human […] receptor and pCRE-Luc reporter system was used for cell-based assay. The assay offers a non-radioactive based approach to determine binding of a compound to GPCRs. In this specific assay, the level of intracellular cAMP which is modulated by activation or inhibition of the receptor is measured. The recombinant cells harbor luciferase reporter gene under the control of cAMP response element.
The above cells were grown in 96 well clear bottom white plates in Hams F12 medium containing 10% fetal bovine serum (FBS). Prior to the addition of compounds or standard agonist, cells were serum starved overnight. Increasing concentrations of test compound were added along with 0.3 μM of Dopamine and 1 μM of forskolin in Opti-MEM medium to the cells. The incubation was continued at 37° C. in CO2 incubator for 4 hours. Medium was removed and cells were washed with phosphate buffered saline. The cells were lysed and luciferase activity was measured in a Luminometer. Luminescence units were plotted against the compound concentrations using GraphPad Prism software. EC50 values of the compounds were defined as the concentration required in reducing the luciferase activity by 50%. The Kb values were calculated by feeding the concentration of agonist used in the assay and its EC50 value in the same software.
References: European Journal of Pharmacology, 2005, 515, 10-19.

[3] = target: T2, cloned human 5-HT1A receptor (Homo sapiens, UniProt P08908); assay: Determination of Ki at 5-HT1A receptor (radioligand binding, [3H]-8-Hydroxy DPAT); details: HEK293-EBNA recombinant cells, [3H]-8-Hydroxy DPAT 0.8 nM
T2 construct: expressed in transfected cells; host or cells: HEK293-EBNA
T2 sequence (P08908 1-422): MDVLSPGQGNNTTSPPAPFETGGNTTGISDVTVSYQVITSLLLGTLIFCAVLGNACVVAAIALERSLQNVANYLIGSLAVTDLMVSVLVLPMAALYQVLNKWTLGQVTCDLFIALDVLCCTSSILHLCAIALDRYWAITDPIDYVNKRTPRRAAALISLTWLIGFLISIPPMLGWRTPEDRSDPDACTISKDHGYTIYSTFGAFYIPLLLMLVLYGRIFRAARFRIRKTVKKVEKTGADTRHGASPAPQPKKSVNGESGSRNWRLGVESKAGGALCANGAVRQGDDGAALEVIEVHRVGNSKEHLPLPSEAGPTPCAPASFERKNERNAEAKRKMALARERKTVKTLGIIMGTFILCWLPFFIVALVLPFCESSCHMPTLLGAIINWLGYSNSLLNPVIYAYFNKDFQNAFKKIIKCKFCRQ
Outline: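 Membranes from HEK293-EBNA cells expressing recombinant human 5-HT1A were incubated with 0.8 nM [3H]-8-hydroxy-DPAT for 2 h at r.t. in pH 7.4 Tris-HCl buffer with EDTA, MgSO4 and ascorbic acid. Non-specific binding was defined with 0.1 mM U92016A; bound radioactivity after filtration was compared with controls.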

Male Wistar rats [4] = assay: Rotarod test; type: in vivo, rat; details: 30 mg/kg p.o., 60 min prior to trial
Procedure: Male Wistar rats of 200-280 g body weight were used. Rats were weighed and randomized according to their body weights. The animals were habituated on a rotating rod (4 rpm) for 4 times. Animals which successfully stayed on the rotating rod for 60 seconds (out of 4 trials per animal) were selected for further study. […] A single trial was carried out on the next day. Animals that were able to stay on the rotating rod for 60 seconds were chosen for further study. Animals were administered with test compound or vehicle 60 min prior to the trial. The latency to fall from the rotating rod was noted. Rotarod test assesses effects of test compound on motor functions.

[5] = target: T3, cloned human 5-HT2A receptor (Homo sapiens, UniProt P28223); assay: Determination of Ki at 5-HT2A receptor (radioligand binding, [3H]-Ketanserine); details: CHO-K1 recombinant cells, [3H]-Ketanserine 1.25 nM
T3 construct: expressed in transfected cells; host or cells: CHO-K1
T3 sequence (P28223 whole entry): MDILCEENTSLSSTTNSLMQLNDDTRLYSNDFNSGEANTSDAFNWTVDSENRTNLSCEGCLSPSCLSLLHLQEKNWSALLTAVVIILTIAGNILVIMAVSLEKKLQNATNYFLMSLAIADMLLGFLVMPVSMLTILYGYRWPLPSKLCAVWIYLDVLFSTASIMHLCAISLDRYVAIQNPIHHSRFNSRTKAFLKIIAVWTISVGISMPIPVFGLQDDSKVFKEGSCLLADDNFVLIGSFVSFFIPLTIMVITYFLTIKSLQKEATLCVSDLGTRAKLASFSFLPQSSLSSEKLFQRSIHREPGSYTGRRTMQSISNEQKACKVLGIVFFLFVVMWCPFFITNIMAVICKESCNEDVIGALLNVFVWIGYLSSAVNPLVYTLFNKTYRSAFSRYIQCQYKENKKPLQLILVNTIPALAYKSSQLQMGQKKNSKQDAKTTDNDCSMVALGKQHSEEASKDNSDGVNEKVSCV
Outline: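 Membranes from CHO-K1 cells expressing the receptor, incubated 1 h at r.t. with 1.25 nM [3H]-ketanserin in pH 7.4 Tris-HCl 50 mM, 4 mM CaCl2, 0.1% ascorbic acid. Nonspecific binding defined with 0.1 mM 1-naphthylpiperazine; bound label measured after filtration.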

[6] = test system: Dopamine and norepinephrine levels in prefrontal cortex and striatum; assay: Modulation in dopamine and norepinephrine levels in prefrontal cortex and striatum (microdialysis); type: in vivo; details: male Wistar rats; for mean maximum increase in dopamine levels in prefrontal cortex / mean maximum increase in norepinephrine levels in prefrontal cortex: s.c. (so in the source), basal = 100%

Compound | Inference, MK-801-induced amnesia in NORT (Male Wistar rats [1]) | Inference, mice forced swim test (Male Swiss albino mice) | agonist activity at human recombinant D2S receptor [2] | antagonistic activity at human recombinant D2S receptor [2] | Kb [2] [nM] | Ki ([3]; read-out: Ki h5-HT1A) [nM] | Inference, rotarod test (motor incoordination side effects) (Male Wistar rats [4]) | Ki ([5]; read-out: Ki h5-HT2A) [nM] | mean maximum increase in dopamine levels in prefrontal cortex ([6]; 3 mg/kg) [%] | mean maximum increase in norepinephrine levels in prefrontal cortex ([6]; 3 mg/kg) [%] | mean maximum increase in dopamine levels in prefrontal cortex ([6]; 10 mg/kg) [%] | mean maximum increase in norepinephrine levels in prefrontal cortex ([6]; 10 mg/kg) [%] | change in dopamine levels in striatum [6] | Ki ([3]; Ki h5-HT1A) [nM] | Ki ([5]; Ki h5-HT2A) [nM]
O=C1C[C@@H]2CCCN2C(=O)N1CCCCN1CCN(c2nsc3ccccc23)CC1 [Example 2, 2-[4-(4-Benzo[d]isothiazol-3-yl-piperazin-1-yl)-butyl]-tetrahydro-pyrrolo[1,2-c]pyrimidine-1,3-dione oxalate] | Active | Active | no detectable agonist activity | antagonistic activity | 33 | 0.06 | No motor incoordination | 0.6 | 326±24 | 187±30 | 458±91 | 368±99 | no change | – | –
O=C1C[C@@H]2CCCN2C(=O)N1CCCCN1CCN(c2cccc3sccc23)CC1 [Example 4, 2-[4-(4-Benzo[b]thiophen-4-yl-piperazin-1-yl)-butyl]-tetrahydro-pyrrolo[1,2-c]pyrimidine-1,3-dione oxalate] | – | – | no detectable agonist activity | antagonistic activity | 54.4 | 0.195 | – | 4.24 | – | – | – | – | – | – | –
O=C1C[C@@H]2C[C@H]3C[C@H]3N2C(=O)N1CCCCN1CCN(c2nsc3ccccc23)CC1 [Example 11, 3-[4-(4-Benzo[d]isothiazol-3-yl-piperazin-1-yl)-butyl]-hexahydro-1b,3-diaza-cyclopropa[a]indene-2,4-dione oxalate] | – | – | – | – | – | – | – | – | – | – | – | – | – | 0.29 | 1.02
O=C1C[C@@H]2C[C@H](F)CN2C(=O)N1CCCCN1CCN(c2nsc3ccccc23)CC1 [Example 9, 2-[4-(4-Benzo[d]isothiazol-3-yl-piperazin-1-yl)-butyl]-6-fluoro-tetrahydro-pyrrolo[1,2-c]pyrimidine-1,3-dione oxalate] | – | – | – | – | – | 0.89 | – | 2.49 | – | – | – | – | – | – | –
